Measurements as given in the CATMoS acute toxicity set (Mansouri et al. 2021).

Experiment: GHS categories as the set defines them, by LD50: 1 up to 5, 2 up to 50, 3 up to 300, 4 up to 2000, 5 above 2000 mg/kg
Settings: rat; in vivo; po

CC1CC(C)(C)OC(Cn2cncn2)(c2cc3ccccc3o2)O1 (configuration not stated)
GHS category: 4

CC(C=O)(CO)CO
GHS category: 5

FC1(F)COC1(F)F
GHS category: 4

CNC(=C[N+](=O)[O-])NCCSCc1ccc(CN(C)C)o1
GHS category: 5

CNc1ccc(Cl)cc1C(=O)c1ccccc1Cl
GHS category: 5

CCCc1c(Cc2ccc(-c3ccccc3-c3nn[nH]n3)cc2)c(=O)nc2[nH][nH]c(=O)n12
GHS category: 4

CC1CN(S(=O)(=O)c2cccc3cnccc23)CCN1 (configuration not stated)
GHS category: 4

C1C2CC3CC1CC(C2)C3
GHS category: 5

Oc1ccc2c(c1)CCN(c1ccccc1)C2c1ccc(F)cc1 (configuration not stated)
GHS category: 4

CNc1nc(Nc2ccccc2)nc(Nc2ccc(C=Cc3ccc(Nc4nc(NC)nc(Nc5ccccc5)n4)cc3S(=O)(=O)O)c(S(=O)(=O)O)c2)n1
GHS category: 5

O=C(O)C(c1ccccc1Cl)N1CCc2sccc2C1 (configuration not stated)
GHS category: 5

CCOC(=O)NC1CCCN(c2nc(N)c3cc(OC)c(OC)cc3n2)C1 (configuration not stated)
GHS category: 4

COc1cc2c(cc1OC)[C@@H]1C[C@H](C[C@H]3CCCCN31)OC(=O)C=Cc1ccc(O)c-2c1
GHS category: 4

CCCC1CCCC(=O)O1 (configuration not stated)
GHS category: 5

C=COCCOCCOC(=O)C=C
GHS category: 4

Cc1c(C)c2c(c(C)c1O)CCC(C)(CCCC(C)CCCC(C)CCCC(C)C)O2 (racemic)
GHS category: 5

C[N+](C)(C)CC(O)CC(=O)[O-] (configuration not stated)
GHS category: 5

c1ccc(C2CCCCC2)cc1
GHS category: 5

CCOC(=O)c1c(N)sc2c1CCN(Cc1ccccc1)C2
GHS category: 5

Cc1cc(OC(=O)c2cc(Cl)ccc2OC(N)=O)ccc1Cl
GHS category: 5

CCCc1nc2ccnn2c(NCCN2CCOCC2)c1Cc1ccc(-c2ccccc2-c2nn[nH]n2)cc1
GHS category: 4

O=C(O)Cc1ccc(Cl)cc1Cl
GHS category: 5

O=C(c1ccc(OC2CCOC2)cc1)c1cc(I)ccc1Cl (configuration not stated)
GHS category: 4

O=C(c1ccc(Cl)cc1)c1ccc2[nH]c(=O)oc2c1
GHS category: 5

CC1(C)CC[C@@]2(C(=O)O)CC[C@@]3(C)C(=CC[C@H]4[C@]5(C)CC[C@@H](O)C(C)(C)[C@H]5CC[C@@]43C)[C@H]2C1 (racemic)
GHS category: 5

CC(C)CCOCCC(C)C
GHS category: 5

CCCCNC(=O)CC[C@H](NC(=O)C(CC)CCCC)C(=O)NCCCC (some centres not stated)
GHS category: 5

CC1Oc2cc(C(=O)c3ccc(Cl)cc3)ccc2N(C)C1=O (configuration not stated)
GHS category: 5

CCn1cc(C(=O)O)c(=O)c2cc(F)c(N3CCNCC3)nc21
GHS category: 5

NNC(=O)NN
GHS category: 5

CCOC(=O)c1cc(=O)c2c(OCC(O)COc3cccc4oc(C(=O)OCC)cc(=O)c34)cccc2o1
GHS category: 5

CC1CC(OC(=O)C(C)(C)Oc2ccccc2Cl)CC(C)(C)C1 (configuration not stated)
GHS category: 5

COC1[C@@H](O[C@@H]2O[C@H](C)[C@@H](O[C@H]3C[C@@](C)(O)[C@H](OC(=O)CC(C)C)[C@H](C)O3)[C@H](N(C)C)[C@H]2O)[C@@H](CC=O)C[C@@H](C)[C@@H](O)C=CC=CC[C@@H](C)OC(=O)C[C@H]1OC(C)=O (some centres not stated)
GHS category: 5

CCCCCC1Nc2cc(C(F)(F)F)c(S(N)(=O)=O)cc2S(=O)(=O)N1 (configuration not stated)
GHS category: 5

CCN(CCO)N=O
GHS category: 5

CC[C@H](c1ccc(O)cc1)[C@@H](CC)c1ccc(O)cc1
GHS category: 5

Cc1cc(C(=O)Nc2ccccc2C)n[nH]1
GHS category: 5

COC(=O)c1cc(Cl)ccc1OC(N)=O
GHS category: 5

COc1ccc(C2(c3ccc(OC)c(C)c3)NC(=O)NC2=O)cc1 (configuration not stated)
GHS category: 5

CCOc1cc(C)c2[nH]c(=O)sc2c1
GHS category: 5

CCCN(CCC)C(=O)C(CCC(=O)OCCOC(=O)COC(=O)Cc1c(C)n(C(=O)c2ccc(Cl)cc2)c2ccc(OC)cc12)NC(=O)c1ccccc1 (configuration not stated)
GHS category: 4

COC(=O)c1ccc(C(=O)Nc2cc(Cl)ccc2Cl)cc1N
GHS category: 4

CNC(=O)Oc1cc(C)cc(C)c1C
GHS category: 3

CCCOC(C)OCCc1ccccc1 (configuration not stated)
GHS category: 5

CCCCCCC#CC(OC)OC
GHS category: 5

CCN(CCCSc1nnnn1C)C(=O)C1CCCC1
GHS category: 4

CC(C)(O/N=C(\C(=O)N[C@@H]1C(=O)N2C(C(=O)[O-])=C(C[n+]3ccccc3)CS[C@H]12)c1csc(N)n1)C(=O)O
GHS category: 5

CCCCC(C)OP(=S)(OC)OC (configuration not stated)
GHS category: 4

NC(=O)Oc1ccccc1C(=O)Oc1cc(Cl)ccc1Cl
GHS category: 5

CCC1(C2=CCCCCC2)C(=O)NC(=O)NC1=O
GHS category: 5

Cc1cccc2ncc(C(=O)N3CCCC3)c(=O)n12
GHS category: 3

O=C(O)c1cc(N=Nc2ccc(N=Nc3ccc(S(=O)(=O)O)cc3)cc2)ccc1O
GHS category: 5

O=C(O)c1cc(O)[nH]c(=O)c1
GHS category: 5

O=S(=O)(O)c1ccc2c(ccc3nn(-c4ccc(C=Cc5ccc(-n6cncn6)cc5S(=O)(=O)O)c(S(=O)(=O)O)c4)nc32)c1
GHS category: 5

C/C(=C\CO)CCC[C@H](C)CCC[C@H](C)CCCC(C)C
GHS category: 5

Cc1cc(-n2nc3ccc(Cl)cc3n2)c(O)c(C(C)(C)C)c1
GHS category: 5

CC(C)[C@H](N)C(=O)O
GHS category: 5

CC(C)CC1(C)OCC(CO)O1 (configuration not stated)
GHS category: 5

CC(=O)N(C)C(=O)Oc1cccc2c1OC(C)(C)O2
GHS category: 4

CCCCCCCCCCCCCCCCCC(=O)NCCCCC(NC(=O)CCC(NC(=O)C(C)NC(=O)C(C)OC1C(O)C(CO)OC(O)C1NC(C)=O)C(N)=O)C(=O)O (configuration not stated)
GHS category: 4

CCCCCCCCC(=O)OCC(CC)(COC(=O)CCCCCCCC)COC(=O)CCCCCCCC
GHS category: 5

Cc1cccc(OC(=O)c2ccccc2OC(N)=O)c1
GHS category: 5

O=C1C=CC=CC1=CNc1ccccc1C(=O)O
GHS category: 4

CCCCCCCCCCCC(=O)N(C)CC(=O)O
GHS category: 5

C[C@@H]1CO[C@@](Cn2cncn2)(c2cc3cc(Cl)ccc3o2)O1
GHS category: 4

Cc1cc(C)c(C=O)c(C)c1
GHS category: 5

CCCC/C=C/C=C\C=O
GHS category: 5

CCOC(=O)C(=O)Nc1cc(SCCOC)nc(C)n1
GHS category: 4

N#CNC1=NCCS1
GHS category: 4

Nc1nnc(-c2cc(Cl)ccc2Cl)c(N)n1
GHS category: 4

CN[C@@H]1[C@@H](O)[C@@H](O[C@@H]2[C@@H](O)[C@H](OC3OC(CN)=CCC3N)[C@@H](N)C[C@H]2N)OC[C@]1(C)O (some centres not stated)
GHS category: 5

C=CCCCCCCCCOC(C)=O
GHS category: 5

CC(C)=CCC(C#N)(CCN1CCOCC1)c1cccc2ccccc12 (configuration not stated)
GHS category: 4

O=S(=O)(O)CC(O)CNC1CCCCC1 (configuration not stated)
GHS category: 5

CN1CC(c2ccn(-c3ccccc3)n2)CC2c3cccc4[nH]cc(c34)CC21 (configuration not stated)
GHS category: 4

CC1(C(O)CO)OC(c2ccc(Cl)cc2)OC2COC(c3ccc(Cl)cc3)OC21 (configuration not stated)
GHS category: 5

CC1=C(/C=C/C(C)=C/C=C/C(C)=C/C=C/C=C(C)/C=C/C=C(C)/C=C/C2=C(C)CCCC2(C)C)C(C)(C)CCC1
GHS category: 5

CNC(=O)c1cc(Cl)cc(C)c1NC(=O)c1cc(Br)nn1-c1ncccc1Cl
GHS category: 5

CCCCC(CC)COC(=O)c1ccc([N+](=O)[O-])cc1 (configuration not stated)
GHS category: 5

C[C@H]1CO[C@@](Cn2cncn2)(c2cc3ccccc3o2)O1
GHS category: 4

CCOC(=O)C(Cl)C(=O)OCC
GHS category: 4

O=[N+]([O-])c1ccc2c(c1)COP(=S)(NC1CCCCC1)O2 (configuration not stated)
GHS category: 3

CCCCCNC(=O)c1ccccc1
GHS category: 5

Cc1ccc2c(c1)C(=O)C(C)C2 (configuration not stated)
GHS category: 5

C[C@]12C[C@H]3O[C@H]3CC1CCC1C2CC[C@]2(C)C(=O)[C@@H](N3CCCC3)CC12 (some centres not stated)
GHS category: 5

C/C=C\[C@@H]1[C@@H](C(=O)OCc2c(F)c(F)c(COC)c(F)c2F)C1(C)C
GHS category: 5

COc1ccc2c(c1)CCN(c1ccccc1)C2c1ccc(OCCN2CCCCC2)cc1 (configuration not stated)
GHS category: 4

CCc1ccccc1OP(=O)(Oc1ccccc1CC)Oc1ccccc1CC
GHS category: 5

C=CC(=O)OCC[N+](C)(C)Cc1ccccc1
GHS category: 5

C=C[C@](C)(O)CC[C@@H]1[C@@]2(C)CCCC(C)(C)[C@@H]2CC[C@@]1(C)O
GHS category: 5

COc1ccc(C2(O)c3ccccc3C3=NCCN32)cc1 (configuration not stated)
GHS category: 4

CC1(C)[C@@H](O[C@H]2O[C@H](C(=O)O)[C@@H](O)[C@H](O)[C@H]2O[C@@H]2O[C@H](C(=O)O)[C@@H](O)[C@H](O)[C@H]2O)CC[C@]2(C)[C@H]3C(=O)C=C4[C@@H]5C[C@@](C)(C(=O)O)CC[C@]5(C)CC[C@@]4(C)[C@]3(C)CC[C@@H]12
GHS category: 5

O=C(O)CSCC(=O)NC1CCSC1=O (configuration not stated)
GHS category: 5

CC(C)Oc1ccc2c(c1)N(CCC1CCCCN1C)c1ccccc1S2 (configuration not stated)
GHS category: 5

CCCC(Cl)CCCC(Cl)CCC(Cl)CCC(Cl)CCC(Cl)CCCC(Cl)CCC (configuration not stated)
GHS category: 5

O=C(CCS)OCC(COC(=O)CCS)(COC(=O)CCS)COC(=O)CCS
GHS category: 4

FC(F)(F)C(F)(F)C(F)(F)C(F)(F)C(F)(F)C(F)(F)F
GHS category: 5

CNC(=O)Oc1cccc2c1OC(C)O2 (configuration not stated)
GHS category: 3

CC(=O)OC1CC(C)CCC1C(C)C (configuration not stated)
GHS category: 5

COc1cc2c(cc1OC)-c1c(C)c3ccc(OC)c(OC)c3c[n+]1CC2
GHS category: 4

C[Si](C)(C)O[Si](C)(C)C
GHS category: 5

NC(=O)Oc1ccccc1C(=O)Oc1ccccc1
GHS category: 5

CCOC(C)OCCc1ccccc1 (configuration not stated)
GHS category: 5

c1coc(CNc2[nH]cnc3ncnc2-3)c1
GHS category: 5

Cc1ccc(C(=O)c2cc(O)c(O)c([N+](=O)[O-])c2)cc1
GHS category: 5

Cn1c(=O)c2c(ncn2CC(=O)N2CCOCC2)n(C)c1=O
GHS category: 5

CCC(C)C(C#N)(CCN(CC=C(C)C)CC=C(C)C)c1cccc2ccccc12 (configuration not stated)
GHS category: 4

OC1(c2cccs2)c2ccccc2C2=NCCN21 (configuration not stated)
GHS category: 4

O=C(Nc1cc(Cl)c(NC(=O)c2cc3ccccc3c(N=Nc3cc(Cl)ccc3Cl)c2O)cc1Cl)c1cc2ccccc2c(N=Nc2cc(Cl)ccc2Cl)c1O
GHS category: 5

CC(=O)Nc1ccc(/N=N/c2c(S(=O)(=O)O)cc3cc(NC(=O)Nc4ccc5c(O)c(/N=N/c6ccccc6)c(S(=O)(=O)O)cc5c4)ccc3c2O)cc1
GHS category: 5

CCCCCCCCCCCCCCCCCCCN
GHS category: 5

FC(F)(F)c1cccc(-n2nc(OCCN3CCCCC3)c3cccnc32)c1
GHS category: 4
